What all share (assay): relative viability (nuclei count vs DMSO), 5 days (fraction); higher = more cells survive
Compound in assay [1]: O=C(NCCCNc1nc(Nc2cccc(NC(=O)N3CCCC3)c2)ncc1I)c1cccs1 [BX 795]
The gist of the method:
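A plate was accepted only when its control CV was below 25% and the cells had doubled at least once. Viability is defined from nuclear counts as treated wells divided by vehicle wells, with the median taken across plates. That median covers lung cancer cell lines grown in 1536-well plates, dosed by pinning at five √10-spaced library-drug concentrations, and counted in MetaXpress from 4× Hoechst images after 5 days.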

Compound in assay [2]: O=C(NCCCNc1nc(Nc2cccc(NC(=O)N3CCCC3)c2)ncc1I)c1cccs1 [BX 795] + C[C@]1(O)C[C@@H](c2nc(-c3ccc4ccc(-c5ccccc5)nc4c3)c3c(N)nccn32)C1 [Linsitinib] (partner 1 µM)
The essentials: (§1)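 Medians of duplicate plates are given as relative viability. That measure is the nuclei count in treated wells divided by the count in vehicle wells. Counts were taken on 4× images of lung cancer cell lines in 1536-well plates, 5 days after pin-tool dosing the day after seeding with one drug alone or a fixed anchor-drug dose plus five library-drug doses (not always all listed) in √10 steps.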

Compound in assay [3]: O=C(NCCCNc1nc(Nc2cccc(NC(=O)N3CCCC3)c2)ncc1I)c1cccs1 [BX 795] + Cc1nc(Nc2ncc(C(=O)Nc3c(C)cccc3Cl)s2)cc(N2CCN(CCO)CC2)n1 [Dasatinib] (partner 0.075 µM)
The gist of the method: as §1

Compound in assay [4]: O=C(NCCCNc1nc(Nc2cccc(NC(=O)N3CCCC3)c2)ncc1I)c1cccs1 [BX 795] + N=C(N)NC(=N)NCCc1ccccc1 [Phenformin] (partner 250 µM)
The essentials:
as §1

Compound in assay [5]: O=C(NCCCNc1nc(Nc2cccc(NC(=O)N3CCCC3)c2)ncc1I)c1cccs1 [BX 795] + NC(=O)Nc1cc(-c2cccc(F)c2)sc1C(=O)N[C@H]1CCCNC1 [AZD7762] (partner 0.2 µM)
The gist of the method:
as §1

Relative viability data for seven cell lines are collected here from the supplement of paper PMC10307832.

In the case of NCI-H1651, the relative viability stood at 1.04 in assay [1] (0.04 µM); 1.04 in assay [1] (0.1265 µM); 0.993 in assay [1] (0.4 µM); 1 in assay [1] (1.265 µM); 0.999 in assay [2] (first compound 0.04 µM); 1.1 in assay [2] (first compound 0.1265 µM). Also, the relative viability came out at 1.02 in assay [2] (first compound 0.4 µM); 0.831 in assay [2] (first compound 1.265 µM); 0.38 in assay [3] (first compound 0.04 µM); 0.426 in assay [3] (first compound 0.1265 µM); 0.43 in assay [3] (first compound 0.4 µM); 0.347 in assay [3] (first compound 1.265 µM). The relative viability in assay [4] (first compound 0.04 µM) came out at 0.322; in assay [4] (first compound 0.1265 µM), 0.356; in assay [4] (first compound 0.4 µM) it was 0.312; in assay [4] (first compound 1.265 µM), 0.24; in assay [5] (first compound 0.04 µM), 0.469; in assay [5] (first compound 0.1265 µM) it was 0.457. The relative viability in assay [5] (first compound 0.4 µM) came to 0.463; in assay [5] (first compound 1.265 µM), 0.511.
For the cell line NCI-H358, the relative viability is 0.955 in assay [1] (0.04 µM); 0.905 in assay [1] (0.1265 µM); 0.76 in assay [1] (0.4 µM); 0.513 in assay [1] (1.265 µM); 0.679 in assay [2] (first compound 0.04 µM); 0.705 in assay [2] (first compound 0.1265 µM). In addition, the relative viability in assay [2] (first compound 0.4 µM) stood at 0.601; in assay [2] (first compound 1.265 µM) it was 0.228; in assay [3] (first compound 0.04 µM) it was 0.155; in assay [3] (first compound 0.1265 µM), 0.165; in assay [3] (first compound 0.4 µM), 0.154; in assay [3] (first compound 1.265 µM), 0.154. The relative viability was 0.296 in assay [4] (first compound 0.04 µM); 0.319 in assay [4] (first compound 0.1265 µM); 0.257 in assay [4] (first compound 0.4 µM); 0.117 in assay [4] (first compound 1.265 µM); 0.518 in assay [5] (first compound 0.04 µM); 0.556 in assay [5] (first compound 0.1265 µM). Moreover, the relative viability turned out to be 0.372 in assay [5] (first compound 0.4 µM) and 0.433 in assay [5] (first compound 1.265 µM).
On to EMC-BAC-2, for which the relative viability in assay [1] (0.04 µM) came to 0.978; in assay [1] (0.1265 µM), 0.843; in assay [1] (0.4 µM) it was 0.951; in assay [1] (1.265 µM), 0.633; in assay [2] (first compound 0.04 µM), 0.79; in assay [2] (first compound 0.1265 µM), 0.888. Also, the relative viability in assay [2] (first compound 0.4 µM) was found to be 0.83; in assay [2] (first compound 1.265 µM), 0.615; in assay [3] (first compound 0.04 µM), 0.296; in assay [3] (first compound 0.1265 µM) it was 0.371; in assay [3] (first compound 0.4 µM) it was 0.287; in assay [3] (first compound 1.265 µM), 0.265. Moreover, the relative viability in assay [4] (first compound 0.04 µM) was found to be 0.473; in assay [4] (first compound 0.1265 µM), 0.489; in assay [4] (first compound 0.4 µM) it was 0.469; in assay [4] (first compound 1.265 µM), 0.301; in assay [5] (first compound 0.04 µM) it was 1.06; in assay [5] (first compound 0.1265 µM), 1.09. Further, the relative viability worked out at 0.945 in assay [5] (first compound 0.4 µM) and 0.727 in assay [5] (first compound 1.265 µM).
Regarding CAL-12T, the relative viability came to 0.949 in assay [1] (0.04 µM); 0.992 in assay [1] (0.1265 µM); 0.882 in assay [1] (0.4 µM); 0.623 in assay [1] (1.265 µM); 0.833 in assay [2] (first compound 0.04 µM); 0.901 in assay [2] (first compound 0.1265 µM). Further, the relative viability in assay [2] (first compound 0.4 µM) is 0.723; in assay [2] (first compound 1.265 µM), 0.374; in assay [3] (first compound 0.04 µM), 0.521; in assay [3] (first compound 0.1265 µM), 0.387; in assay [3] (first compound 0.4 µM), 0.281; in assay [3] (first compound 1.265 µM), 0.129. In addition, the relative viability in assay [4] (first compound 0.04 µM) is 0.599; in assay [4] (first compound 0.1265 µM) it was 0.591; in assay [4] (first compound 0.4 µM), 0.447; in assay [4] (first compound 1.265 µM), 0.212; in assay [5] (first compound 0.04 µM), 0.555; in assay [5] (first compound 0.1265 µM), 0.617. Moreover, the relative viability in assay [5] (first compound 0.4 µM) is 0.609; in assay [5] (first compound 1.265 µM), 0.584.
With LCLC-103H, the relative viability was found to be 1.02 in assay [1] (0.04 µM); 1.01 in assay [1] (0.1265 µM); 0.937 in assay [1] (0.4 µM); 0.985 in assay [1] (1.265 µM); 1.12 in assay [2] (first compound 0.04 µM); 1.16 in assay [2] (first compound 0.1265 µM). In addition, the relative viability in assay [2] (first compound 0.4 µM) worked out at 0.901; in assay [2] (first compound 1.265 µM), 1.09; in assay [3] (first compound 0.04 µM), 0.55; in assay [3] (first compound 0.1265 µM) it was 0.481; in assay [3] (first compound 0.4 µM), 0.553; in assay [3] (first compound 1.265 µM), 0.412. For the same cell line, the relative viability was 0.301 in assay [4] (first compound 0.04 µM); 0.327 in assay [4] (first compound 0.1265 µM); 0.355 in assay [4] (first compound 0.4 µM); 0.298 in assay [4] (first compound 1.265 µM); 0.706 in assay [5] (first compound 0.04 µM); 0.878 in assay [5] (first compound 0.1265 µM). Moreover, the relative viability came to 0.712 in assay [5] (first compound 0.4 µM) and 0.849 in assay [5] (first compound 1.265 µM).
Consider NCI-H1395, for which the relative viability was determined as 0.839 in assay [1] (0.04 µM); 0.858 in assay [1] (0.1265 µM); 0.586 in assay [1] (0.4 µM); 0.633 in assay [1] (1.265 µM); 1.1 in assay [2] (first compound 0.04 µM); 0.957 in assay [2] (first compound 0.1265 µM). Also, the relative viability in assay [2] (first compound 0.4 µM) turned out to be 0.611; in assay [2] (first compound 1.265 µM) it was 0.786; in assay [3] (first compound 0.04 µM), 0.368; in assay [3] (first compound 0.1265 µM), 0.435; in assay [3] (first compound 0.4 µM), 0.397; in assay [3] (first compound 1.265 µM), 0.32. The relative viability stood at 0.471 in assay [4] (first compound 0.04 µM); 0.462 in assay [4] (first compound 0.1265 µM); 0.458 in assay [4] (first compound 0.4 µM); 0.431 in assay [4] (first compound 1.265 µM); 0.375 in assay [5] (first compound 0.04 µM); 0.427 in assay [5] (first compound 0.1265 µM). For the same cell line, the relative viability in assay [5] (first compound 0.4 µM) came to 0.39; in assay [5] (first compound 1.265 µM), 0.381.
With HCC-366, the relative viability was 1.02 in assay [1] (0.04 µM); 1.02 in assay [1] (0.1265 µM); 0.944 in assay [1] (0.4 µM); 0.945 in assay [1] (1.265 µM); 0.469 in assay [2] (first compound 0.04 µM); 0.727 in assay [2] (first compound 0.1265 µM). For the same cell line, the relative viability is 0.257 in assay [2] (first compound 0.4 µM); 0.3 in assay [2] (first compound 1.265 µM); 0.757 in assay [3] (first compound 0.04 µM); 0.73 in assay [3] (first compound 0.1265 µM); 0.498 in assay [3] (first compound 0.4 µM); 0.631 in assay [3] (first compound 1.265 µM). For the same cell line, the relative viability stood at 0.622 in assay [4] (first compound 0.04 µM); 0.629 in assay [4] (first compound 0.1265 µM); 0.602 in assay [4] (first compound 0.4 µM); 0.583 in assay [4] (first compound 1.265 µM); 0.228 in assay [5] (first compound 0.04 µM); 0.227 in assay [5] (first compound 0.1265 µM). Moreover, the relative viability in assay [5] (first compound 0.4 µM) was found to be 0.19; in assay [5] (first compound 1.265 µM), 0.306.
